Experiments:
healthy subjects [1] = assay: Double-blind, placebo-controlled dose titration clinical study; heart rate by continuous telemetry; format: in vivo, human
Experimental: A single-center, double-blind, placebo-controlled, dose titration, once-daily, multiple-oral-dose clinical study in healthy subjects was conducted to evaluate the effect of a dosage regimen of FTY720 according to the present invention. A total of 36 subjects were randomly assigned to one of the three groups. Each subject participated in a screening period of maximal 21 days, a baseline period (Day −1), a 9-day dose-administration period, and clinical study completion assessments on Day 10. Subjects were assigned to one of the three groups (dose titration regimen group, placebo control group, or active control group) and received the once daily dose in a double-blinded manner (Table 1). In the dose titration group, increasing once daily doses of Compound A (FTY720), starting at 0.125 mg o.d. and ending at the maximal therapeutic dose of 1.25 mg o.d. were administered on days 1 to 9 of the study according to the schedule shown in Table 1 below. The placebo control group received placebo through out the duration of the study and the active control group received a once daily dose of 1.25 mg of FTY720 on days 1 to 9. [table] Pharmacodynamic and safety assessments are performed up to 24 hours post last dose. Heart rate is monitored via telemetry on Day −1 through Day 10, 24 hour after the last dosing. Heart rhythm is assessed via 24 hr continuous holter monitoring on Day −1, Day 1, and Day 9. For each dosing for each subject, the drug is administered as closely as practically possible to the time administered on Day −1. Safety assessments includes physical examinations, vital signs and body measurements, 12-lead ECG evaluations, standard clinical laboratory evaluations hematology, blood chemistry, urinalysis, adverse event and serious adverse event monitoring. Systolic and diastolic blood pressure and pulse are measured after the subject has rested quietly in the sitting position for at least 3 minutes. Blood pressure is measured at the same arm on each occasion. Standard 12-lead ECGs are recorded at Screening, baseline, 4 hours post-dose on Day 1 and Day 8, and at Study Completion. The variables recorded are: date and time of ECG, heart rate, PR interval, QT interval (uncorrected), QTcB, QRS duration. The overall interpretation is collected with a Yes/No statement to confirm if any clinically relevant abnormalities are present, which needs to be specified further. Subjects remain on continuous telemetry, starting before breakfast on Day −1 and proceeding throughout the administration period up to Day 10 (24 hour after the last dose). Over this ten day duration of continuous heart rate collection for each subject, one heart rate value is obtained every minute (‘minute unit heart rate’), representing the average heart rate value over that minute. The heart rate database for each subject contains approximately 14,400 data points (10 days×24 hr×60 min). 24-hour continuous Holter-ECG data are captured via a digital Holter monitor (12-lead, on Days −1, 1, 6, and 8), and transferred for interpretation and reporting. Holter monitoring starts approximately at 7:00 and the time of dose administration is regarded as the time “0 hours”. Holter “cuts” are derived from the dataset at 1 hour intervals starting from Day −1 and continuing for 24 hours or the end of the cleaned Holter monitoring dataset. Cardiac conduction intervals: arrhythmia monitoring includes the frequency and duration of sinus pauses (>2 sec and >3 sec) and atrio-ventricular blocks. Frequency and duration of atrial and ventricular ectopy and sinus rhythm are also recorded. The daily chronotropic effect is defined as the percent decrease in HRmin (minimum heart rate) between two consecutive days. It is calculated on days 1 to 9.

healthy subjects [2] = conditions: administration of 1.25 mg of FTY720; cited from earlier work
multiple sclerosis = conditions: humans; cited from earlier work

CCCCCCCCc1ccc(CCC(N)(CO)CO)cc1.Cl [FTY720, 2-amino-2-[2-(4-octylphenyl)ethyl]propane-1,3-diol]
additional decrease in daily average heart rate from Day 1 to Day 2 (healthy subjects [1]; active control group, 1.25 mg once daily, Day 1 to Day 2): approximately 3 BPM
decrease in daily average heart rate from Day -1 to Day 1 (healthy subjects [1]; active control group, 1.25 mg once daily, Day -1 to Day 1): approximately 8 BPM
gradual decrease in daily average heart rate per day (healthy subjects [1]; dose titration group 0.125/0.25/0.5/1.25 mg o.d., over the eight day course of the titration): 1-2 BPM per day
heart rate on initiation of 1.25 mg on Day 8 compared to the preceding days (healthy subjects [1]; dose titration group, Day 8, first 1.25 mg dose): does not result in dip in heart rate
daily minimum heart rates during the course of the study (healthy subjects [1]; dose titration regimen compared with 1.25 mg once daily group): improved daily minimum heart rates
negative chronotropic effect on Day 1 of treatment initiation (healthy subjects [1]; dose titration regimen versus 1.25 mg from Day 1): attenuates the negative chronotropic effect
decrease in heart rate (healthy subjects [2]): approximately 8 beats/min (BPM)
efficacy in the treatment of multiple sclerosis (multiple sclerosis): has been demonstrated in humans

Source: patent US20190091180A1, “DOSAGE REGIMEN FOR A S1P RECEPTOR AGONIST” (Novartis AG, priority 2008, published 2019)
